Experiment: Evaluation of stability in liver microsome
Details: mouse liver microsome 0.25 mg/mL, test compound 1 μM, 37° C., 30 minutes
Protocol: Solutions of the test compounds in DMSO/acetonitrile (the final concentration of each test compound was 1 μM, the final concentration of DMSO was 0.01%, and the final concentration of acetonitrile was 1%) were individually added to a liver microsome mixture solution (mouse liver microsome with a final concentration of 0.25 mg/mL, a potassium phosphate buffer with a final concentration of 100 mM, and magnesium chloride with a final concentration of 3 mM), and each mixture was pre-incubated at 37° C. for 5 minutes. […] After incubation at 37° C. for 30 minutes, a double amount of ethanol was added thereto to terminate the reaction, thereby obtaining post-reaction samples. A double amount of ethanol was added to each of the remaining mixture solutions, and a NADPH-generating system was further added thereto, thereby obtaining pre-reaction samples. The pre-reaction samples and post-reaction samples were centrifuged at 2000×g, and their supernatant was filtered through a glass filter. Each filtrate was then introduced into LC-MS/MS, and MS/MS peaks of the test compounds were detected. From the ratio of the post-reaction MS/MS peak to the pre-reaction MS/MS peak of the test compounds, the percentage of the remaining test compounds (remaining %) was calculated.

Row | Compound | Remaining (%)
1 | COCc1ccc(NC(=O)c2c(-c3ccc(F)nc3)n(C3(C)CC3)c3ncnc(N)c23)cc1 [Example 190, 4-amino-6-(6-fluoropyridin-3-yl)-N-(4-(methoxymethyl)phenyl)-7-(1-methylcyclopropyl)-7H-pyrrolo[2,3-d]pyrimidine-5-carboxamide] | 58%
2 | COCc1ccc(NC(=O)c2c(C#Cc3c[nH]c4ccccc34)n(C3(C)CC3)c3ncnc(N)c23)cc1 [Example 121, 6-((1H-indol-3-yl)ethynyl)-4-amino-N-(4-(methoxymethyl)phenyl)-7-(1-methylcyclopropyl)-7H-pyrrolo[2,3-d]pyrimidine-5-carboxamide] | 74%
3 | Nc1ncnc2c1c(C(=O)Nc1ccc(Oc3ccccc3)cc1)cn2C1CCCC1 [Compound 2 of Comparative Examples, 4-amino-7-cyclopentyl-N-(4-phenoxyphenyl)-7H-pyrrolo[2,3-d]pyrimidine-5-carboxamide, reference compound] | 0%
4 | CCOc1c(C(=O)Nc2ccc(-c3ccco3)cc2)c2c(N)ncnc2n1C1(C)CC1 [Example 116, 4-amino-6-ethoxy-N-(4-(furan-2-yl)phenyl)-7-(1-methylcyclopropyl)-7H-pyrrolo[2,3-d]pyrimidine-5-carboxamide] | 55%
5 | COCc1ccc(NC(=O)c2c(C#CC3CCOCC3)n(C3(C)CC3)c3ncnc(N)c23)cc1F [Example 205, 4-amino-N-(3-fluoro-4-(methoxymethyl)phenyl)-7-(1-methylcyclopropyl)-6-((tetrahydro-2H-pyran-4-yl)ethynyl)-7H-pyrrolo[2,3-d]pyrimidine-5-carboxamide] | 58%
6 | COCc1ccc(NC(=O)c2c(C#Cc3cnc[nH]3)n(C3(C)CC3)c3ncnc(N)c23)cc1 [Example 191, 6-((1H-imidazol-5-yl)ethynyl)-4-amino-N-(4-(methoxymethyl)phenyl)-7-(1-methylcyclopropyl)-7H-pyrrolo[2,3-d]pyrimidine-5-carboxamide] | 53%
7 | COCc1ccc(NC(=O)c2c(C#Cc3cccnc3)n(C3(C)CC3)c3ncnc(N)c23)cc1 [Example 94, 4-amino-N-[4-(methoxymethyl)phenyl]-7-(1-methylcyclopropyl)-6-(pyridin-3-ylethynyl)-7H-pyrrolo[2,3-d]pyrimidine-5-carboxamide] | 60%
8 | COCc1ccc(NC(=O)c2c(-c3ccc(NC(C)=O)nc3)n(C3(C)CC3)c3ncnc(N)c23)cc1 [Example 147, 6-(6-acetamidopyridin-3-yl)-4-amino-N-(4-(methoxymethyl)phenyl)-7-(1-methylcyclopropyl)-7H-pyrrolo[2,3-d]pyrimidine-5-carboxamide] | 68%
9 | COCc1ccc(NC(=O)c2c(C#Cc3cncnc3)n(C3(C)CC3)c3ncnc(N)c23)cc1 [Example 196, 4-amino-N-(4-(methoxymethyl)phenyl)-7-(1-methylcyclopropyl)-6-(pyrimidin-5-ylethynyl)-7H-pyrrolo[2,3-d]pyrimidine-5-carboxamide] | 53%
10 | COCc1ccc(NC(=O)c2cn(C(C)(C)CF)c3ncnc(N)c23)cc1F [Example 41, 4-amino-7-(1-fluoro-2-methylpropan-2-yl)-N-(3-fluoro-4-(methoxymethyl)phenyl)-7H-pyrrolo[2,3-d]pyrimidine-5-carboxamide] | 56%
11 | COCc1ccc(NC(=O)c2c(C#Cc3ccn(C)n3)n(C3(C)CC3)c3ncnc(N)c23)cc1 [Example 92, 4-amino-N-(4-(methoxymethyl)phenyl)-6-((1-methyl-1H-pyrazol-3-yl)ethynyl)-7-(1-methylcyclopropyl)-7H-pyrrolo[2,3-d]pyrimidine-5-carboxamide] | 67%
12 | COCc1ccc(NC(=O)c2c(OCC(C)C)n(C3(C)CC3)c3ncnc(N)c23)cc1 [Example 99, 4-amino-6-isobutoxy-N-(4-(methoxymethyl)phenyl)-7-(1-methylcyclopropyl)-7H-pyrrolo[2,3-d]pyrimidine-5-carboxamide] | 51%
13 | COCc1ccc(NC(=O)c2c(C#CCC(C)(C)O)n(C3(C)CC3)c3ncnc(N)c23)cc1 [Example 86, 4-amino-6-(4-hydroxy-4-methylpent-1-yn-1-yl)-N-[4-(methoxymethyl)phenyl]-7-(1-methylcyclopropyl)-7H-pyrrolo[2,3-d]pyrimidine-5-carboxamide] | 66%
14 | COCc1ccc(NC(=O)c2c(C#Cc3cncn3C)n(C3(C)CC3)c3ncnc(N)c23)cc1 [Example 93, 4-amino-N-(4-(methoxymethyl)phenyl)-6-((1-methyl-1H-imidazol-5-yl)ethynyl)-7-(1-methylcyclopropyl)-7H-pyrrolo[2,3-d]pyrimidine-5-carboxamide] | 53%
15 | COCc1ccc(NC(=O)c2cn(C(C)(C)C)c3ncnc(N)c23)cc1 [Example 2, 4-amino-7-(tert-butyl)-N-(4-(methoxymethyl)phenyl)-7H-pyrrolo[2,3-d]pyrimidine-5-carboxamide] | 64%
16 | C=C(C)c1c(C(=O)Nc2ccc(COC)cc2)c2c(N)ncnc2n1C1(C)CC1 [Example 149, 4-amino-N-(4-(methoxymethyl)phenyl)-7-(1-methylcyclopropyl)-6-(prop-1-en-2-yl)-7H-pyrrolo[2,3-d]pyrimidine-5-carboxamide] | 62%
17 | COCc1ccc(NC(=O)c2c(Cl)n(C3(C)CC3)c3ncnc(N)c23)cc1 [Example 56, 4-amino-6-chloro-N-[4-(methoxymethyl)phenyl]-7-(1-methylcyclopropyl)-7H-pyrrolo[2,3-d]pyrimidine-5-carboxamide] | 62%
18 | C=Cc1c(C(=O)Nc2ccc(COC)cc2)c2c(N)ncnc2n1C1(C)CC1 [Example 65, 4-amino-N-(4-(methoxymethyl)phenyl)-7-(1-methylcyclopropyl)-6-vinyl-7H-pyrrolo[2,3-d]pyrimidine-5-carboxamide] | 79%
19 | COCc1ccc(NC(=O)c2c(C#Cc3cnn(C(C)C)c3)n(C3(C)CC3)c3ncnc(N)c23)cc1 [Example 144, 4-amino-6-((1-isopropyl-1H-pyrazol-4-yl)ethynyl)-N-(4-(methoxymethyl)phenyl)-7-(1-methylcyclopropyl)-7H-pyrrolo[2,3-d]pyrimidine-5-carboxamide] | 79%
20 | COCc1ccc(NC(=O)c2cn(C(C)(C)C)c3ncnc(N)c23)c(OC)c1 [Example 33, 4-amino-7-(tert-butyl)-N-(2-methoxy-4-(methoxymethyl)phenyl)-7H-pyrrolo[2,3-d]pyrimidine-5-carboxamide] | 57%
21 | COCc1ccc(NC(=O)c2c(-c3ccc(CO)nc3)n(C3(C)CC3)c3ncnc(N)c23)cc1 [Example 179, 4-amino-6-(6-(hydroxymethyl)pyridin-3-yl)-N-(4-(methoxymethyl)phenyl)-7-(1-methylcyclopropyl)-7H-pyrrolo[2,3-d]pyrimidine-5-carboxamide] | 85%
22 | COCc1ccc(NC(=O)c2c(OCC(C)OC)n(C3(C)CC3)c3ncnc(N)c23)cc1 (stereo not shown) [Example 100, 4-amino-N-(4-(methoxymethyl)phenyl)-6-(2-methoxypropoxy)-7-(1-methylcyclopropyl)-7H-pyrrolo[2,3-d]pyrimidine-5-carboxamide] | 76%
